We go through one compound from patent US12589103B2, “Antimicrobial and antiviral effects of C2-C7 alkyl boronic acids” (CORNELL UNIVERSITY, priority 2019, dated 2026).

“Also recorded” adds a separate entry of the source.

For data set [1], the system named is AIEC and cancer associated E. coli. In words: Soft agar motility assay, E. coli. It is filed as cell-based. As to conditions: 10 h, AIEC NC101, 541-1, cancer associated E. coli. As for the experimental part: The ability of ABA C1-3 and BA to impact the motility of E. coli and Salmonella was evaluated using sloppy agar treated with and without BA and C1-C3 alkyl boronic acids. Motility is strongly linked to the virulence phenotype of these bacterial strains. E. coli was grown overnight at 37° C. in LB broth. Soft agar plates (1% tryptone, 0.5% NaCl, 0.25% agar) were prepared the day before the assay was carried out. Sterile NaCl (control), boric or boronic acid stock solution was added into the agar right before pouring the plates. The overnight cultures of E. coli were transferred (3 μl) on to the center of each plate, followed by incubation of the plates at 37° C. for 10 h. E. coli motility was quantified by measuring the diameter of the circular swarming area formed by the growing motile bacteria.

The next data set concerns nF-κB. In words: E. coli induced nF-κB activation in HEK-Blue KD-TLR5 cells (SEAP reporter). It is filed as cell-based. Particulars: m.o.i 20, SEAP at 24 h. As for the experimental part: HEK-Blue KD-TLR5 cells were used to detect the promotor activation of nF-κB by E. coli infection with or without boric or boronic acid treatment. nF-κB is the prototypical transcription factor for pro-inflammatory cytokines in epithelium. Briefly, cells were seeded in 96-well plates at a density of 5×10^4 cells per well. E. coli was diluted into fresh cell medium containing either NaCl (Control), boric or boronic acid at an m.o.i of 200 as 10× inocula, followed by addition of this inoculum (10 μl) into each well containing 100 μl of medium for a final m.o.i of 20. At 3 h post infection, the cell medium was carefully removed from each well, and replaced with 100 μl of fresh medium containing gentamycin (200 μg mL^−1). At 24 h post infection, the spent medium was collected, and centrifuged at 12,000 r.p.m. for 5 min to remove any particulate matter. QUANTI-Blue Kit (InvivoGen, San Diego, CA, USA) was used to detect the reporter protein SEAP (secreted alkaline phosphatase) following the manufacturer's instructions.

In data set [2] the test system is Klebsiella pneumonia (13Dk). As to the kind of experiment: Growth in M9 media. Particulars: EBA 10-40 mM.
Data set [3] is classed as in vivo, mouse. The source says:
This novel observation of an anti-inflammatory effect of EBA was corroborated in subsequent collaborative studies. […] These experiments confirm that EBA has an anti-inflammatory effect in two distinct murine models of microbially driven IBD.

For data set [4], the system named is Feline Infectious Peritonitis Virus (FIPV) Black (TN-406). As to the kind of experiment: FIPV replication and syncytium formation, immunofluorescence. Type of data set: cell-based, Feline Coronavirus type I. Particulars: 10, 20, 30, 40 mM; Feline Lung cells, 18 h post-infection.
The test system of data set [5] is Gram Positive aerobes and probiotic species (Lactobacillus, Bifidobacteria). As to the kind of experiment: Bacterial growth panel, impact on non-target species (selectivity). Type of data set: cell-based.
Data set [6] relates to AIEC E. coli (541-1, LF82) virulence genes. In words: Virulence gene expression of AIEC (qRT-PCR). It is filed as cell-based. Particulars: 30 mM. As for the experimental part: Total RNA was extracted using the Qiagen RNAProtect-RNeasy Kit per manufacturer's protocol. Total RNA was treated with TURBO DNA-Free Kit (Ambion), followed by a two-step qRT-PCR analysis, using Qiagen's QuantiTect Reverse Transcription Kit and QuantiNova SYBR Green PCR Kit. Each qPCR reaction contained 1 μl of cDNA, 0.7 μl of each forward and reverse primers (10 μM), 5 μL of 2× SYBR Green Master Mix, 1 μl of QN ROX Reference Dye and […] of nuclease-free water to make the total volume of 10 μl. The reaction was run with ABI7000 (Applied Biosystems). […] The relative change of a targeted gene expression was calculated by using the equation RQ=2^−ΔΔCT.
For orientation: Real-time PCR tracks product formation cycle by cycle.

The subject of data set [7] is typhoid toxin B subunit (CdtB). Type of data set: cell-based, Salmonella typhi.
Data set [8] in a line: DSS induced colitis in mice. It is filed as in vivo, C57BL mice. Particulars: 40 mM in drinking water after DSS (3%). Here is the method: On the basis of favorable in vivo toxicity tests, the ability of BA and EBA to reduce the severity of inflammation in murine models of microbially driven IBD was tested. The effect of BA and EBA (40 mM) on intestinal inflammation was evaluated in mice with dextran sodium sulfate (“DSS”) induced colitis. The DSS model has a complex etiopathogenesis that involves host-immune and inflammatory responses and the enteric microbiome BA To test their protecting ability to the gastrointestinal tract, boric and ethylboronic acid were given to C57BL mice at 40 mM concentration respectively in drinking water after DSS (3%) treatment. Body weight and fecal samples were taken before and after 6-day treatment. At the 6th day, all mice were euthanized for gross necropsy and histopathology. Intestinal sections were collected and embedded for pathological and FISH analysis. Fecal samples were used for 16s and lipocalin analysis.

The nature of data set [9]: 8-week toxicity study in mice, drinking water. Type of data set: in vivo, C57/B18 mice. As for the experimental part:
The toxicity of boric and ethylboronic acids were examined with C57/B18 mice. At concentrations of 0, 10, 20, and 40 mM, the two chemicals were given to each group (6 mice) in drinking water. The body weight of each mouse was recorded weekly for 8 weeks, and fecal samples were also collected weekly for 16s sequencing. All animals were sacrificed at the end of 8th week. The length of whole intestine and ileum of each mouse was measured, and sections of the intestine (i. e. small intestine, ileum, cecum, and large intestine) were taken for histopathological and FISH analysis. Fecal samples were used for 16s and lipocalin analysis.
For lipocalin analysis, mouse fecal pellets were collected and frozen at −80 C during toxicity study. To determine lipocalin activity fecal pellets were diluted in microfuge tubes 1/30 with 0.1% Tween20/PBS and vortexed for 20 min at maximum speed. Undissolved particles were removed by centrifuging at 12,000 rpm for 10 min at 4 C. Supernatant was removed and placed into a clean microfuge tube. Lipocalin activity was determined using Mouse Lipocalin-2/NGAL DuoSet ELISA Kit (R&D Systems, DY1857) per manufacturer's instructions.

For the next data set, the system named is AIEC 541-1 and LF82. As to the kind of experiment: Adhesion and invasion of Caco-2 cells by AIEC. It is filed as cell-based, E. coli. As to conditions: 30 mM, m.o.i 10, 3 h.
In data set [10] the test system is AIEC E. coli isolated from people (MDR and non-MDR strains). As to the kind of experiment: Growth of MDR and non-MDR E. coli associated with Crohn's disease. Particulars: 40 mM, LB broth, 48 hrs. Type of data set: cell-based. As for the experimental part: The ability of C1-C3 alkyl boronic acids and BA to impact the growth of MDR E. coli isolated from people and dogs was evaluated using a temperature controlled 96-well multiplate incubator at 37° C. over 48 hrs. Growth in media (LB broth) with and without ABA C2-6 (40 mM) was monitored by readings at OD600 with the AUC of the growth curve calculated.

Experimental for AIEC 541-1 and LF82: E. coli was cultured overnight in LB at 37° C. with shaking. Bacterial pellets were re-suspended in PBS before dilution in cell culture media±30 mM boronic acid or alkyl boronic acid to an m.o.i (multiplicity of infection) of 10. Caco-2 cells were infected with the diluted E. coli for 3 h at 37° C. before washing with PBS, then lysed with 1% Triton X-100. Serial dilutions of the lysates were made in PBS and plated on LB agar. The total number of colonies recovered was used to calculate the number of adherent bacteria. For invasion assays, cells were treated with gentamicin (100 μg mL−1) for one hour after initial infection and 3× wash with PBS to kill extracellular bacteria. Cells were then washed 3× after gentamicin treatment, lysed and plated as described above.

With `CCB(O)O` [EBA, ethyl boronic acid], the “motility of E. coli” value in data set [1] is “highly effective at blocking motility of AIEC and cancer associated E. coli”. Further, in the data set with nF-κB, the “induction of nF-κB by E. coli” value is “reduced the induction of nF-κB by E. coli”. The “inhibition of growth of Klebsiella pneumonia 13Dk” value in data set [2] is on record as “effective”. In addition, the “intestinal inflammation, fecal lipocalin and histopathology” value in data set [3] (SIHUMI colonized 11-10−/− mouse) was “markedly reduced intestinal inflammation”. Besides, the “adverse or pro-inflammatory effects” value in data set [3] (mouse, in vivo) is “no adverse or pro-inflammatory effects”. Further, the “replication and syncytium formation of FIPV” value in [4] was “inhibited replication and syncytium formation of FIPV in infected cells”. In data set [5] (compared with BA), the “selectivity against Probiotic spp” value is “more selective than BA” and the “selectivity versus Gram Positive aerobes” value is recorded as “more selective than BA”. Moreover, the “selectivity: impact on Gram Positive aerobes and probiotic species” value in [5] (same concentrations as growth panel) is “less impact on probiotic Lactobacillus, Bacillus, and Gram Positive aerobes; also recorded: more selective than DoDBA; also recorded: more selective than C3-C7 alkyl boronic acids”. Besides, the “pduC expression in 541-1” value in data set [6] is reported as “Upregulation”. Moreover, the “virulence gene expression of AIEC” value in data set [6] (mid log phase, compared with BA) is “inhibited virulence gene expression”. Besides, in data set [7], the “typhoid toxin (CdtB) production” value is reported as “inhibition of toxin production (CdtB)”. Moreover, in [8], the “colon length in DSS colitis versus control mice” value is reported as “not significantly different”, the “fecal lipocalin levels in DSS colitis versus control mice” value is “not significantly different” and the “intestinal bleeding in DSS colitis” value is reported as “absent”. The “adverse effects in mice” value in [9] (40 mM) is recorded as “safely administered to mice without adverse effects”. The “fecal 16S profiles” value in data set [9] (mouse, in vivo) is listed as “not significantly different from control mice”. Moreover, the “adhesion and invasion of Caco-2 by AIEC” value with AIEC 541-1 and LF82 was “suppress adhesion and invasion of Caco-2 by AIEC 541-1 and LF82”. In addition, the “growth inhibition of Crohn's disease associated AIEC, MDR and non-MDR” value in data set [10] is “more effective than BA over a wider range of AIEC, including MDR and non-MDR strains”.
